Source: patent US4795743A, “2'-deamino-2'-hydroxyistamycin Bo derivatives of low toxicity” (Zaidan Hojin Biseibutsu Kagaku Kenkyu Kai, priority 1986, dated 1989)
In brackets after ≈: the same amount, converted by molar mass. Where two headings read alike, the source gives them in different places.

Tests used:
[1] = tested on: Staphylococcus aureus 209P; assay: Antibacterial spectrum, standard serial dilution method of Japan Society of Chemotherapy; assay type: cell-based; conditions: read-out: Minimum Growth Inhibitory Concentration
[2] = tested on: Staphylococcus aureus Ap 01; assay: Antibacterial spectrum, standard serial dilution method; assay type: cell-based; conditions: read-out: Minimum Growth Inhibitory Concentration
[3] = tested on: Staphylococcus epidermidis 109; assay: as above; assay type: cell-based; conditions: read-out: Minimum Growth Inhibitory Concentration
Bacillus anthracis = assay: microbe, parasite or virus in culture; assay type: cell-based; conditions: 18 h, read-out: Minimum Growth Inhibitory Concentration
[4] = tested on: Bacillus subtilis PCI 219; assay: Antibacterial spectrum, standard serial dilution method; assay type: cell-based; conditions: read-out: Minimum Growth Inhibitory Concentration
[5] = tested on: Bacillus subtilis NRRL B-558; assay: as above; assay type: cell-based; conditions: NRRLB558; Bacillus subtilis NRRL B-558; Muller-Hinton medium, 37° C., 18 hours; read-out: Minimum Growth Inhibitory Concentration
[6] = tested on: Corynebacterium bovis 1810; assay: as above; assay type: cell-based; conditions: read-out: Minimum Growth Inhibitory Concentration
Escherichia coli NIHJ = assay: as above; assay type: cell-based; conditions: read-out: Minimum Growth Inhibitory Concentration
[7] = tested on: Escherichia coli K-12 J5 R11-2; assay: as above; assay type: cell-based; conditions: K12J5R112, 18 h, read-out: Minimum Growth Inhibitory Concentration
[8] = tested on: Escherichia coli K-12 ML1630; assay: as above; assay type: cell-based; conditions: K12ML1630, E. coli K-12 ML1630, Muller-Hinton medium, 37° C., 18 hours, read-out: Minimum Growth Inhibitory Concentration
[9] = tested on: Escherichia coli K-12 ML1410; assay: as above; assay type: cell-based; conditions: K12ML1410, 18 h, read-out: Minimum Growth Inhibitory Concentration
[10] = tested on: Escherichia coli K-12 ML1410 R81; assay: as above; assay type: cell-based; conditions: K12ML1410R81, 18 h, read-out: Minimum Growth Inhibitory Concentration
[11] = tested on: Escherichia coli K-12 LA290 R55; assay: as above; assay type: cell-based; conditions: K12LA290R55, 18 h, read-out: Minimum Growth Inhibitory Concentration
[12] = tested on: Escherichia coli K-12 LA290 R56; assay: as above; assay type: cell-based; conditions: K12LA290R56, 18 h, read-out: Minimum Growth Inhibitory Concentration
Escherichia coli W677 = assay: as above; assay type: cell-based; conditions: read-out: Minimum Growth Inhibitory Concentration
[13] = tested on: Escherichia coli JR66/W677; assay: as above; assay type: cell-based; conditions: read-out: Minimum Growth Inhibitory Concentration
[14] = tested on: Escherichia coli K-12 C600 R135; assay: as above; assay type: cell-based; conditions: K12C600R135, E. coli K-12 C600 R135, Muller-Hinton medium, 37° C., 18 hours, read-out: Minimum Growth Inhibitory Concentration
[15] = tested on: Klebsiella Pneumoniae PCI 602; assay: as above; assay type: cell-based; conditions: read-out: Minimum Growth Inhibitory Concentration
[16] = tested on: Klebsiella pneumoniae 22 = 3038; assay: as above; assay type: cell-based; conditions: Klebsiella pneumoniae, 18 h, read-out: Minimum Growth Inhibitory Concentration
[17] = tested on: Shigella dysernteriae JS11910; assay: as above; assay type: cell-based; conditions: Muller-Hinton medium, 37° C., 18 hours, read-out: Minimum Growth Inhibitory Concentration
Shigella sonnei = assay: as above; assay type: cell-based; conditions: Muller-Hinton medium, 37° C., 18 hours, read-out: Minimum Growth Inhibitory Concentration
Proteus vulgaris OX19 = assay: as above; assay type: cell-based; conditions: read-out: Minimum Growth Inhibitory Concentration
Proteus rettgeri GN311 = assay: as above; assay type: cell-based; conditions: Providencia rettgeri; Proteus rettgeri GN311; Muller-Hinton medium, 37° C., 18 hours; read-out: Minimum Growth Inhibitory Concentration
Serratia marcescens = assay: as above; assay type: cell-based; conditions: read-out: Minimum Growth Inhibitory Concentration
Serratia sp. SOU = assay: as above; assay type: cell-based; conditions: read-out: Minimum Growth Inhibitory Concentration
Serratia sp. 4 = assay: as above; assay type: cell-based; conditions: Muller-Hinton medium, 37° C., 18 hours, read-out: Minimum Growth Inhibitory Concentration
Providencia sp. Pv16 = assay: as above; assay type: cell-based; conditions: read-out: Minimum Growth Inhibitory Concentration
Providencia sp. 2991 = assay: as above; assay type: cell-based; conditions: Providencia, SP.2991, 18 h, read-out: Minimum Growth Inhibitory Concentration
[18] = tested on: Pseudomonas aeruguinosa No.12; assay: as above; assay type: cell-based, Pseudomonas aeruginosa; conditions: Muller-Hinton medium, 37° C., 18 hours, read-out: Minimum Growth Inhibitory Concentration
[19] = tested on: Pseudomonas aeruguinosa H9; assay: as above; assay type: cell-based, Pseudomonas aeruginosa; conditions: Pseudomonas aeruguinosa H9; Muller-Hinton medium, 37° C., 18 hours; read-out: Minimum Growth Inhibitory Concentration
[20] = tested on: Pseudomonas aeruguinosa 99; assay: as above; assay type: cell-based, Pseudomonas aeruginosa; conditions: Muller-Hinton medium, 37° C., 18 hours, read-out: Minimum Growth Inhibitory Concentration
[21] = tested on: Pseudomonas aeruguinosa 21-75; assay: as above; assay type: cell-based, Pseudomonas aeruginosa; conditions: 2175, Muller-Hinton medium, 37° C., 18 hours, read-out: Minimum Growth Inhibitory Concentration
[22] = tested on: Pseudomonas aeruguinosa PST1; assay: as above; assay type: cell-based, Pseudomonas aeruginosa; conditions: Muller-Hinton medium, 37° C., 18 hours, read-out: Minimum Growth Inhibitory Concentration
[23] = tested on: Pseudomonas aeruguinosa ROS 134/PU21; assay: as above; assay type: cell-based, Pseudomonas aeruginosa; conditions: ROS134/PU21, 18 h, read-out: Minimum Growth Inhibitory Concentration

Row | Structure (SMILES) | MIC (Bacillus anthracis) | MIC [5] | MIC [7] | MIC [8] | MIC [9] | MIC [10] | MIC [11] | MIC [12] | MIC [14] | MIC [16] | MIC [17] | MIC (Shigella sonnei) | MIC (Proteus rettgeri GN311) | MIC (Serratia sp. 4) | MIC (Providencia sp. 2991) | MIC [18] | MIC [19] | MIC [20] | MIC [21] | MIC [22] | also measured
1 | CNCC1CCC(O)C(OC2C(N)CC(O)C(N(C)C(=O)CCN)C2O)O1 (stereo not drawn) [Compound No. 4, 4-N-(β-Alanyl)-2'-deamino-2'-hydroxy-3-O-demethylistamycin Bo] | 1.56 µg/mL (≈ 4 µM) | 0.78 µg/mL (≈ 2 µM) | 0.78 µg/mL (≈ 2 µM) | 6.25 µg/mL (≈ 16 µM) | 6.25 µg/mL (≈ 16 µM) | 6.25 µg/mL (≈ 16 µM) | 6.25 µg/mL (≈ 16 µM) | 3.13 µg/mL (≈ 8.02 µM) | 3.13 µg/mL (≈ 8.02 µM) | 3.13 µg/mL (≈ 8.02 µM) | 3.13 µg/mL (≈ 8.02 µM) | 3.13 µg/mL (≈ 8.02 µM) | 0.78 µg/mL (≈ 2 µM) | 12.5 µg/mL (≈ 32 µM) | 3.13 µg/mL (≈ 8.02 µM) | 12.5 µg/mL (≈ 32 µM) | 12.5 µg/mL (≈ 32 µM) | 25 µg/mL (≈ 64 µM) | 12.5 µg/mL (≈ 32 µM) | 12.5 µg/mL (≈ 32 µM) | MIC ([1]; 209P, 18 h): 1.56 µg/mL (≈ 4 µM); MIC ([2]; AP01, 18 h): 3.13 µg/mL (≈ 8.02 µM); MIC ([3]; Staphylococcus epidermidis, 109, 18 h): 1.56 µg/mL (≈ 4 µM); MIC ([4]; Bacillus subtilis, PCI219, 18 h): 3.13 µg/mL (≈ 8.02 µM); MIC ([6]; Corynebacterium bovis, 1810, 18 h): 3.13 µg/mL (≈ 8.02 µM); MIC (Escherichia coli NIHJ; 18 h): 1.56 µg/mL (≈ 4 µM); MIC (Escherichia coli W677; W677, 18 h): 1.56 µg/mL (≈ 4 µM); MIC ([13]; JR66/W677, 18 h): 3.13 µg/mL (≈ 8.02 µM); MIC ([15]; Klebsiella pneumoniae, 18 h): 3.13 µg/mL (≈ 8.02 µM); MIC (Proteus vulgaris OX19; Proteus vulgaris, OX19, 18 h): 1.56 µg/mL (≈ 4 µM); MIC (Serratia marcescens; 18 h): 3.13 µg/mL (≈ 8.02 µM); MIC (Serratia sp. SOU; Serratia, 18 h): 1.56 µg/mL (≈ 4 µM); MIC (Providencia sp. Pv16; Providencia, SP.PV16, 18 h): 1.56 µg/mL (≈ 4 µM); MIC [23]: 100 µg/mL (≈ 256 µM)
2 | CNCC1CCC(N)C(OC2C(N)CC(OC)C(N(C)C(=O)CN)C2O)O1 (centres unmarked) [Istamycin B, istamycin B] | 0.78 µg/mL (≈ 2 µM) | 0.78 µg/mL (≈ 2 µM) | 0.78 µg/mL (≈ 2 µM) | 6.25 µg/mL (≈ 16 µM) | 3.13 µg/mL (≈ 8.04 µM) | 1.56 µg/mL (≈ 4.01 µM) | 3.13 µg/mL (≈ 8.04 µM) | 0.78 µg/mL (≈ 2 µM) | 12.5 µg/mL (≈ 32.1 µM) | 3.13 µg/mL (≈ 8.04 µM) | 3.13 µg/mL (≈ 8.04 µM) | 3.13 µg/mL (≈ 8.04 µM) | 1.56 µg/mL (≈ 4.01 µM) | 50 µg/mL (≈ 128 µM) | 3.13 µg/mL (≈ 8.04 µM) | 25 µg/mL (≈ 64.2 µM) | 12.5 µg/mL (≈ 32.1 µM) | > 100 µg/mL | 50 µg/mL (≈ 128 µM) | 50 µg/mL (≈ 128 µM) | MIC ([1]; S. aureus 209P, Muller-Hinton medium, 37° C., 18 hours): 0.78 µg/mL (≈ 2 µM); MIC ([2]; AP01, S. aureus Ap 01, Muller-Hinton medium, 37° C., 18 hours): 1.56 µg/mL (≈ 4.01 µM); MIC ([3]; Staphylococcus epidermidis, S. epidermidis 109, Muller-Hinton medium, 37° C., 18 hours): 0.78 µg/mL (≈ 2 µM); MIC ([4]; PCI219, Bacillus subtilis PCI 219, Muller-Hinton medium, 37° C., 18 hours): 0.78 µg/mL (≈ 2 µM); MIC ([6]; Corynebacterium bovis 1810, Muller-Hinton medium, 37° C., 18 hours): 0.78 µg/mL (≈ 2 µM); MIC (Escherichia coli NIHJ; E. coli NIHJ, Muller-Hinton medium, 37° C., 18 hours): 0.78 µg/mL (≈ 2 µM); MIC (Escherichia coli W677; E. coli W677, Muller-Hinton medium, 37° C., 18 hours): 0.78 µg/mL (≈ 2 µM); MIC ([13]; E. coli JR66/W677, Muller-Hinton medium, 37° C., 18 hours): 1.56 µg/mL (≈ 4.01 µM); MIC ([15]; Klebsiella Pneumoniae PCI 602, Muller-Hinton medium, 37° C., 18 hours): 1.56 µg/mL (≈ 4.01 µM); MIC (Proteus vulgaris OX19; Proteus vulgaris OX19, Muller-Hinton medium, 37° C., 18 hours): 0.78 µg/mL (≈ 2 µM); MIC (Serratia marcescens; Muller-Hinton medium, 37° C., 18 hours): 6.25 µg/mL (≈ 16 µM); MIC (Serratia sp. SOU; Serratia sp. SOU, Muller-Hinton medium, 37° C., 18 hours): 25 µg/mL (≈ 64.2 µM); MIC (Providencia sp. Pv16; Providencia sp. Pv16, Muller-Hinton medium, 37° C., 18 hours): 1.56 µg/mL (≈ 4.01 µM); MIC [23]: > 100 µg/mL
